According to patent US8637493B2, “Methods for treating glioblastoma” (University of Massachusetts, priority 2009, dated 2014):
Values joined by “and” are separate entries in the source; they are usually repeats but may differ in a detail not shown here. Identical values can stand only once.

Experiments:
[1] = tested on: U373NS; assay: Neurosphere formation / recovery / secondary neurosphere assay, U373NS; assay type: cell-based, human
Method: (§1) The effect of chemotherapy on neurosphere formation was assayed in glioma neurosphere cultures. Cultures are treated with a single dose of the agent, e.g., TMZ and multiple doses of a GSI, e.g., DAPT to inhibit the Notch pathway. After the Treatment phase, the number of initial spheres (counted about 7 days after TMZ treatment) represents the number of proliferating CSC/progenitors (FIG. 1 for schematic). Recovery (counted 14 days after TMZ treatment) includes enlargement of the initial spheres and new spheres formed when CSC/progenitor cells quiescent as a result of chemotherapy resume cell proliferation. […] The cells used included U87NS, a neurosphere culture converted to neurosphere growth in defined medium from U87MG (an old Swedish line that is grown in conventional serum conditions); GS7-2, GS8-26 and GS6-22 primary neurosphere cultures that were obtained from grade IV GBM patient tumor samples and AS5-15, which was obtained from a grade III anaplastic astrocytoma.
(§2) To determine the effects of TMZ plus DAPT neurospheres, cells were plated as previously described (Mihaliak et al., Cancer Letts. 296, 168-177 (2010)). Immediately after plating, cells were treated with DMSO, DAPT-only, LY411,575 (LY)-only TMZ-only, TMZ+DAPT or TMZ+LY. The initial neurospheres were counted on day 7 for the converted cell lines and on day 10 for the slower growing primary lines. Neurosphere recovery was measured on day 14 or 20. The neurospheres were dissociated, re-plated and secondary neurosphere formation was measured on day 21 or 30.
(§3) Neurosphere cultures were dissociated to single cell suspensions by pH dissociation followed by filtration through 40 μm screens. For the neurosphere assay, 3,000 cells/ml of defined medium were seeded in 6-well plates. Immediately after plating, cells were treated with DMSO (Research Organics, Cleveland, Ohio) carrier control, TMZ-only, DAPT-only, or TMZ+DAPT. Additional DAPT was added on days 2 and 4. Neurospheres consisting of 10 or more cells were counted under a light microscope on day 7 for the converted cell lines. Primary lines have a slightly longer doubling time and were counted on day 10. After counting the neurospheres from the initial treatment, 2 ml of fresh defined medium was added to each well. DAPT was also added once more to the DAPT-only and TMZ+DAPT samples, and the cells were incubated for an additional 7 or 10 days. Neurospheres from the recovery period were counted on day 14 or day 20. To analyze secondary neurosphere formation, cells were collected, pelleted and dissociated to a single cell suspension by the pH method. Cells from each well were re-seeded into 6-well plates with 2 ml of defined medium. The number of secondary neurospheres formed by converted cell lines and primary cultures were counted on day 21 or day 30, respectively. All recovery assays were repeated with a minimum of 6 replicate sets of time points.

[2] = tested on: U87NS cells; assay: Ex vivo treated cells, subcutaneous xenograft tumor initiation, U87NS; assay type: in vivo, nude mice
Method: U87NS cells were treated in vitro as follows. The cells were dissociated and 2.5×10^4 cells/ml were plated defined media and treated with DMSO, TMZ-only (200 μM), DAPT-only (1 μM or 5 μM), or TMZ+DAPT as described for recovery assays (FIG. 8A and Table 1). After 7 days, 2.5×10^5 live cells were counted using trypan blue and re-suspended in 100 μl PBS and subcutaneously injected into nude mice. Mice were monitored for tumor formation for up to 120 days post-injection and euthanized when tumors reached volumes of 1.5 to 2 cm3. Tumor initiation was observed when a palpable tumor formed. […] Impressively, none of the mice injected with TMZ+DAPT treated cells (0/7 mice) formed tumors, even after 90 days. When a higher number of live U87NS cells (3×10^6) were injected, we saw a similar trend (Table 1). Mice with 3×10^6 cells for U87NS DMSO (2/2 mice) and DAPT-only (2/2 mice) xenografts developed palpable tumors at 3 and 4 days, respectively, and 3/4 mice formed tumors in TMZ-only treated cells with an average latency of 25 days. With this higher number of cells injected, U87NS TMZ+DAPT xenografts formed tumors in only 1/4 mice with a longer latency of 43 days.
(§4) U87NS and U373NS neurospheres were dissociated and 2.5×10^4 cells/ml were plated in defined media and treated with DMSO, TMZ-only (200 μM), DAPT-only (1 μM or 5 μM), or TMZ+DAPT as described for recovery assays. After 7 days, 3×10^6 live cells were counted using trypan blue and re-suspended in 100 μl PBS. Cells were subcutaneously injected into the flanks of nude mice. Mice were monitored for tumor formation for up to 120 days post-injection and euthanized when tumors reached volumes of 1.5 to 2 cm^3.

[3] = tested on: U87NS; assay: Neurosphere formation / recovery / secondary neurosphere assay, U87NS; assay type: cell-based, human
Method: as §1, §2, §3
(§5) For the samples labeled “PRE-treat”, a single dose of DAPT was administered when the cells were plated, and then TMZ was added to the medium 24 hours later. For the “CO-treat” samples, single doses of TMZ and DART were added simultaneously when the cells were plated. Finally, samples labeled “POST-treat” were treated with TMZ, and then DAPT was added 24 hours later.

[4] = tested on: GS7-2; assay: Neurosphere formation / recovery / secondary neurosphere assay, GS7-2; assay type: cell-based, human
Method: as §1, §2, §3, §5

[5] = tested on: U373NS; assay: Ex vivo treated cells, subcutaneous xenograft tumor initiation, U373NS; assay type: in vivo, nude mice; conditions: 3 × 10^6 live cells injected, TMZ 200 μM, DAPT 5 μM
Method: as §4
as §4, with “U373NS” for “U87NS and U373NS”, “(FIG. 8B and Table 1).” for “as described for recovery assays.”, “cm^3. The control DMSO cells formed palpable tumors in an average of 15 days for 7/7 xenografts, and DAPT-only treated cells formed tumors in an average of 16 days for 7/7 xenografts. […] Palpable tumors formed for 6/7 TMZ-treated U373NS xenografts in an average of 43 days. […] Only 1/7 mice formed a tumor in the TMZ+DAPT U373NS xenografts with an extended latency of 96 days.” for “cm^3.”

[6] = 10 μM DAPT alone, counted day 7
[7] = low concentrations (1-5 μM) DAPT-only, day 7
[8] = 2.5 × 10^5 live cells injected, TMZ 200 μM, DAPT 1 μM
[9] = secondary neurospheres divided by recovery neurospheres

Compound: C[C@H](NC(=O)Cc1cc(F)cc(F)c1)C(=O)N[C@H](C(=O)OC(C)(C)C)c1ccccc1 [DAPT, N-[N-(3,5-difluorophenacetyl)-L-alanyl]-(S)-phenylglycine t-butyl ester]
- decrease of neurosphere formation compared to DMSO controls [1, 6]: 39%
- inhibition of neurosphere formation [1, 7]: minimal inhibition
- Ex vivo Treated Xenograft Average Latency [2, 8]: 14 days
- Ex vivo Treated Xenograft Incidence [2, 8]: 7/7
- Ex vivo Treated Xenograft Average Latency ([2]; 3 × 10^6 live cells injected): 4 days
- Ex vivo Treated Xenograft Incidence ([2]; 3 × 10^6 live cells injected): 2/2
- decrease of neurosphere formation compared to DMSO controls [3, 6]: 41%
- inhibition of neurosphere formation [3, 7]: minimal inhibition
- decrease of neurosphere formation compared to DMSO controls ([4]; 10 μM DAPT alone, counted day 10): 49%
- inhibition of neurosphere formation ([4]; low concentrations (1-5 μM) DAPT-only, day 10): minimal inhibition
- Ex vivo Treated Xenograft Average Latency [5]: 16 days
- Ex vivo Treated Xenograft Incidence [5]: 7/7

Compound: Cn1nnc2c(C(N)=O)ncn2c1=O [TMZ, temozolomide]
- recovery: increase in the number of neurospheres ([1]; day 14 relative to day 7, TMZ 200 μM, DAPT 5 μM): 1.5 fold
- secondary neurosphere formation, TMZ-only treated culture relative to TMZ+DAPT treated culture ([1]; day 21, P<0.001): 23 fold
- average number of cells per neurosphere capable of self-renewal [1, 9]: 3 cells per neurosphere
- Ex vivo Treated Xenograft Average Latency [2, 8]: 32 days
- Ex vivo Treated Xenograft Incidence [2, 8]: 6/7
- Ex vivo Treated Xenograft Average Latency ([2]; 3 × 10^6 live cells injected): 25 days
- Ex vivo Treated Xenograft Incidence ([2]; 3 × 10^6 live cells injected): 3/4
- secondary neurosphere formation relative to DAPT POST-treatment ([3]; TMZ-only treatment, P<0.001): 5.7 fold
- recovery: increase in the number of neurospheres ([3]; day 14 relative to day 7, TMZ 200 μM, DAPT 1 μM): 2 fold
- secondary neurosphere formation, TMZ-only treated culture relative to TMZ+DAPT treated culture ([3]; day 21, P<0.0001): 36 fold
- average number of cells per neurosphere capable of self-renewal [3, 9]: 8 cells per neurosphere
- secondary neurosphere formation relative to DAPT POST-treatment ([4]; TMZ-only treatment, P<0.0001): 85.7 fold
- recovery: increase in the number of neurospheres ([4]; day 20 relative to day 10, DAPT 1 μM): 1.8 fold
- secondary neurosphere formation, TMZ-only treated culture relative to TMZ+DAPT treated culture ([4]; day 30, P<0.001): 45 fold
- average number of cells per neurosphere capable of self-renewal [4, 9]: 38 cells per neurosphere
- Ex vivo Treated Xenograft Average Latency [5]: 43 days and 45 days
- Ex vivo Treated Xenograft Incidence [5]: 6/7
